Tested on: patients in treatment for chronic neuropathic pain
Assay: 42 patient physician-sponsored open label clinical study of the compounded transdermal formulation
Assay type: in vivo
Details: about 1/4 gm applied to site of pain twice a day; overall trial 18 months
Experimental: A number of examples of formulations of the invention were made. The formulations were used in the 42 patient open-label study of Example 2 and applied under “Cannacreme-C” 60 gm.
A 42 patient open label clinical study was performed as a physician sponsored study of patients in treatment for chronic pain with different diagnoses.
Patients ranged in age from 30 to 70 years old and were both male and female. […]
Outcome measures included a patient's own subjective report, clinician's notes, as well as questionnaires such as the McGill Pain Questionnnaire (Melzack R., Pain. 1:277-299, 1975), Fibromyalgia impact Questionnaire (Burckhardt, C. S. et al., J. Rheumatol. 18:728-733, 1991), Visual Analogue Pain Rating Scale (such as reviewed in Wewers M. E. and Lowe N. K. Res. Nursing Health 13:227-236, 1990), and Likert Pain Scales (Likert, R. Arch. Psychol. 140: 55, 1932). Objective electrophysiological monitoring including Quantitative Sensory Testing, Electromyogram, and Nerve Conduction Studies, as required from patient to patient. […]

SMILES: CCCCCCC(C)(C)c1cc(O)c2c(c1)OC(C)(C)C1CCC(=O)CC21 (stereo not shown) [Nabilone, 3-(1,1-dimethylheptyl)-6,6a,7,8,10,10a-hexahydro-1-hydroxy-6,6-dimethyl-9H-dibenzo[b,d]pyran-9-one]
- local site sensitization, irritation or Adverse Drug Reaction: no reports of local site sensitization or irritation
